The term IC50 denotes the concentration at which inhibition is half-maximal. A low value points to inhibition by little substance.

Data set [1] deals with healthy C57BL/6J mice.
Method: The Open-Field test (OFT) was utilized to evaluate the autonomous behavior, exploratory tendencies, and anxiety levels of experimental animals in a new environment. Each mouse was placed at the center of the container and given a 10-min exploration period. Before the test, the animals were acclimated to the experimental setting for 60 min. […] This cleaning procedure aimed to reduce the risk of contamination and prevent any misleading experimental results due to olfactory stimuli. Anxiety levels and exploratory behavior were assessed by measuring the time spent in the central area, the number of entries into the central area, and the total distance traveled by the mice.
In data set [2] the target is T1, TRPC7 homomer (Homo sapiens, UniProt Q9HCX4).
T1 construct: expressed in transfected cells
T1 sequence (Q9HCX4 1-862): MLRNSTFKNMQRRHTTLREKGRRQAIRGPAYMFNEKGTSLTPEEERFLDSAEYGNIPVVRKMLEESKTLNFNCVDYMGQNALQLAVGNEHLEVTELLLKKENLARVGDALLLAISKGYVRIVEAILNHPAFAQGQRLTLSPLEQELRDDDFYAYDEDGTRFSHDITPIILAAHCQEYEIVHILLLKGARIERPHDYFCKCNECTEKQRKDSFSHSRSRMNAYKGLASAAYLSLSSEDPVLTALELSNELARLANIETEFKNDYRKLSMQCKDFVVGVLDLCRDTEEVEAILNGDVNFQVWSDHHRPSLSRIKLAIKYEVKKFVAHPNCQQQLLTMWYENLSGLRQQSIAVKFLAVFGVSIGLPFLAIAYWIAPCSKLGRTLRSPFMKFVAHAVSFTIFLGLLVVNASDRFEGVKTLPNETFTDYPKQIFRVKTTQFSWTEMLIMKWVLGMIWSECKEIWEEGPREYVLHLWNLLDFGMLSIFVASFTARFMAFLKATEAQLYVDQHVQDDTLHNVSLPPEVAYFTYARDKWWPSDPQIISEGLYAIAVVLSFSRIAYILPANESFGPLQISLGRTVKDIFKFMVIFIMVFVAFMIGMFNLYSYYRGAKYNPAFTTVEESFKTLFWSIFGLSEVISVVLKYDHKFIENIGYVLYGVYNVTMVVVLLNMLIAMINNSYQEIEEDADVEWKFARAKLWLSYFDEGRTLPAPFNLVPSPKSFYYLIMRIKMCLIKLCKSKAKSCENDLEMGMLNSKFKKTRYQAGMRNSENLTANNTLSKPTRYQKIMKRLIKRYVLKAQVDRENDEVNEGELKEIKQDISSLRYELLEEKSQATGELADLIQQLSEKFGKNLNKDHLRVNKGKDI
As to the kind of experiment: Whole-cell patch-clamp, inhibition of TRPC7 homomer. It is filed as cell-based. The source says:
Error bars represent the standard error of the mean (SEM, n = 5 independent cells).
On the technique in general: The patch-clamp technique gives a direct electrical read-out from membranes.

Data set [3] deals with diet-induced obesity (DIO) mice. The data set is described as follows: Diet-induced obesity (DIO) model, body weight and food intake. It is filed as in vivo, mouse. The following applies: 11 days once daily, HC-070 and JD03-02 10 mg/kg i.g., Semaglutide 0.123 mg/kg s.c. Here is the method:
A maximum of five mice were housed per cage during the acclimatization period, and three mice per cage during the experimental period. […] The day of administration was defined as day 1 (D1) of the experiment, with a single dose/day administered for 11 consecutive days. Daily observations were made on the animals’ general condition. Body weight was measured on days 1, 3, 5, 7, 9, and 11 post-administrations. Food intake was measured on days 1, 3, 5, 7, and 9 post-administrations by calculating the difference between the amount of food provided and the amount remaining in the cage, divided by the number of animals in the cage to determine the average food intake per mouse. The cumulative food intake during the experiment was calculated by summing the food intake measurements taken on different days.

The structures appear in SMILES notation. Entries after “also recorded” stand apart in the source; their conditions may differ.

`CN(C)CCCCn1c(=O)c2c(nc(Oc3cccc(Cl)c3)n2Cc2ccc(Cl)cc2)n(C)c1=O` [H08]: the “OFT total distance traveled” value in data set [1] is given as “no significant effect”. The molecule also returned an IC50 in data set [2] above 10 µM. For the same molecule, the “inhibition of TRPC7” value in data set [2] (10 μM) is reported as “no more than 40%”. Besides, in data set [3], the body weight result is listed as “no significant effect; also recorded: did not affect body weight or food intake” and the food intake entry is reported as “no significant effect; also recorded: did not affect body weight or food intake”.
